# Earlier results in US9974867B2, “Cytotoxic benzodiazepine derivatives” (priority 2014, dated 2018).
# Details: Phase I clinical evaluation; cited from earlier work
smiles,measurement,value
C=C1C[C@H]2C=Nc3cc(OCCCOc4cc5c(cc4OC)C(=O)N4CC(=C)C[C@H]4C=N5)c(OC)cc3C(=O)N2C1 [SJG-136],maximum tolerated dose,45 μg/m^2
